Results reported in patent publication US20090264342A1, “COMPOSITIONS AND METHODS FOR ANTIBIOTIC POTENTIATION AND DRUG DISCOVERY” (priority 2006, published 2009).

Experiments:
E. Coli RecA protein = molecular target: T1, E. Coli RecA protein (Escherichia coli, UniProt P0A7G6); assay: RecA ATPase activity, in vitro luciferase assay; format: biochemical; conditions: luciferase assay screen, FIG. 14
T1 construct: purchased New England Biolabs
Protocol: The assay measures the amount of ATPase (adenosine triphosphate (ATP)-adenosine diphosphate (ADP)) activity catalyzed by E. Coli RecA protein. In the assay, recA is incubated in reaction buffer with DNA, ATP and compounds of interest for a measured amount of time. The quantity of ATP remaining after the RecA reaction is quantitated using a subsequent luciferase assay. […] Details of the assay are provided below.
Materials. Kingase glo plus, adenosine triphosphate (ATP), Adenosine 5′-O-(3-thiotriphosphate), and 384 well plates, white were obtained from Fisher; and M13 mp18 Single-stranded DNA, RecA Protein and T4 Polynucleotide Kinase Reaction Buffer=PNK were obtained from New England Biolabs. PNK contained 70 mM Tris-CL pH 7.5, 10 mM MgCl2 and 5 mM DTT.
Assay Procedure. Final reaction mixture contains: 0.5 μL of M13 single stranded DNA (250 μg/mL); 1.0 μL of 10×PHK buffer; 0.25 μL of RecA (2 mg/mL); 0.25 μL of 1 mM ATP; 0.25 μL of test compound in DMSO; and […] of H2O.
Test compounds are incubated at room temperature in the presence of RecA protein and DNA prior to addition of ATP. This can be achieved by the preparation of two mixes, as indicated below. Desirably, both a no-DNA and a DNA/DMSO-only (i.e., no test compound) control were included.
The following steps are then performed: (1) Add 7.75 μL of mix 1 to the well of a 384 well plate; (2) Add 0.5 μL of the compound of interest; (3) Incubate at room temperature for 5 minutes; (4) Add 2.5 μL of the ATP mix. Incubate at room temperature for 30 minutes; (5) Add 12.5 μL of Promega Kinase glo plus; (6) Incubate at room temperature for 10 minutes or more; and (7) Measure luminescence of the reaction.
Tested compounds were obtained from Boston University (1205 compounds from CMLD diversity library, available from Dr. Scott Schauss), IndoFine (66 compounds based on flavone structure), ChemdiV (48 compounds known to be ATPase inhibitors and 720 compounds structurally related to CB101 (described, for example, in U.S. Ser. No. 60/662,038), and Asinex. Five (5) tested compounds were bisfiavones and 28 were predicted, based on structural modeling (see, for example, Example 31) to dock with Rec A. Many of the compounds are lipophilic, natural-product-like compounds. Others are flavones, bisflavones, flavonoids, coumarins, and/or heterocyclic compounds.
Percent inhibition is calculated according to the following equation: […]

wild type E. coli = assay: Growth of wild type E. coli in the presence of quinolone (OD600); format: cell-based; conditions: 0.1 μg/mL of Cipro (sublethal concentration)
Description: Each deletion strain was constructed by replacing the chromosomal copy of the relevant gene in a wild type E. coli strain (K-12) with a selectable antibiotic resistance gene, essentially as described, to create a precise gene deletion (Datsenko, K. A. and Wanner, B. L., “One-step inactivation of chromosomal genes in Escherichia coli K-12 using PCR products”, Proc Natl Acad Sci USA, 97, 6640-6645, […]); Baba, T., Ara, T., Okumura, Y., iki Hasegawa, M., Takai, Y., Baba, M., Oshima, T., Tomita, M., Wanner, B. and Mori, H. (2003) Systematic construction of single gene deletion mutants in Escherichia coli K-12 (in preparation) and see also the web site at ecoli.aist-nara.ac.jp/gb5/Resources/deletion/deletion.html).
For each mutant, the ratio of growth of the mutant in the presence of a sublethal concentration of quinolone to growth of the mutant in the absence of quinolone was calculated after 12 hours of growth at 37° C., based on OD600 measurements. […]

S. aureus cells = assay: Mutation/resistance assay, resistance to ciprofloxacin; format: cell-based; conditions: 4×MIC ciprofloxacin with (+) or without (−) 25 μg/mL hinokiflavone
Protocol: This assay measures the rate at which mutant cells arise in the presence of an antibiotic agent. Cells are grown in the presence of antibiotic agent at a concentration above (generally well above, e.g., 4× or 8×) its MIC, and further in the presence or absence of a test agent (that may inhibit or enhance mutation).
Every 24 hours, an aliquot is removed from the culture and is diluted so that the antibiotic agent is no longer present at a concentration above its MIC (e.g., so that the antibiotic agent is present at 0.5×MIC or less). These aliquoted samples are then assayed to determine whether they can grow in the presence of the antibiotic agent. Specifically, when growth is observed in the presence of antibiotic agent at a concentration that is 4×MIC, then resistance is said to have developed. Test compounds can therefore be assayed to assess whether or not they can reduce the incidence of resistance (e.g., by inhibiting mutation).
These aliquoted samples were then assayed to determine whether they can grow in the presence of ciprofloxacin. […]

strain E1 = assay: Potentiation of gentamicin by mefloquine (MBC, MIC); format: cell-based
Description: Several aminoglycoside (gentamicin) potentiator target genes identified in Example 34 are ATP synthases.

[1] = test system: wild-type strain of S. aureus; assay: Hydroxyl radical formation (HPF dye, flow cytometry) in S. aureus; format: cell-based
Protocol: For work with S. aureus, a Staphylococcus aureus subspecies aureus Rosenback strain was used that was obtained from ATCC (29740).
(§1) Growth Conditions. In the experiments, the growth and survival of untreated exponential phase E. coli, or S. aureus, were compared to cultured treated with antibiotics at the above concentrations. E. coli cultures were treated with norfloxacin, kanamycin, ampicillin, rifamycin SV, chloramphenical, tetracycline, erythromycin, or spectinomycin, where appropriate, S. aureus cultures were treated with norfloxacin, vancomycin or chloramphenical, where appropriate.
(§2) Hydroxyl radical and DNA damage sensor experiments using the flow cytometer. To monitor the occurrence of DNA damage, the engineered DNA damage sensor was used, which responds to auto-cleavage of LexA by activating expression of gfpmut3b. All the drug treatments and the no-drug controls were collected with both the kanamycin- and ampicillin-resistant version of the plasmid, with the exception of the ampicillin treatment (kanamycin plasmid only) and the kanamycin treatment (ampicillin plasmid only). All data were collected using a Becton Dickinson FACSCalibur flow cytometer (Becton Dickinson, San Jose, Calif.) with a 488-nm argon laser and a 515- to 545-nm emission filter (FL1) at low flow rate. The following PMT voltage settings were used: E00 (FSC), 360 (SSC) and 700 (FL1). To detect hydroxyl radical formation, the fluorescent reporter dye, 3′-(p-hydroxyphenyl) fluorescein (HPF, Invitrogen, Carlsbad, Calif.) was used at a concentration of 5 μM (1:1000) dilution), which is oxidized by hydroxyl radicals with high specificity. The following PMT voltage settings were used: E00 (FSC), 360 (SSC) and 825 (FL 1). Calibrite beads (Becton Dickinson) were used for instrument calibration.

E. coli MG1655 = assay: Hydroxyl radical formation (HPF dye, flow cytometry) in E. coli; format: cell-based; conditions: E. coli; 250 ng/mL norfloxacin, 5 μg/mL ampicillin, 5 μg/mL kanamycin; bacteriostatic drugs; 3 hours after addition
Protocol: as §1, §2
Flow data were processed and analyzed with MATLAB (MathWorks, Natick, Mass.) to construct figures. At least 50,000 cells were collected for each sample. In all experiments, cells were grown as described above. Samples were taken immediately before addition of drug (time zero), then every hour for 3 hours. At each timepoint, approximately […] were collected, washed once and resuspended in filtered 1×PBS, pH 7.2 (Fisher Scientific), and fluorescence was measured on the flow cytometer.
In the present study, the Applicants chose to investigate whether hydroxyl radical formation also contributes to antibiotic-induced cell death in bacteria. Using the dye hydroxyphenyl fluorescein, HPF, which is oxidized by hydroxyl radicals with high specificity, hydroxyl radical formation was first observed over a range of hydrogen peroxide concentrations known to induce hydroxyl radicals through the reduction of hydrogen peroxide by ferrous iron. In this manner, it was possible to establish the scale of hydroxyl radical formation detectable using this dye via flow cytometry.

E. coli H+ATPase = E. coli H+ATPase (Escherichia coli, UniProt P0AB98+P68699); conditions: cited from earlier work

T1 sequence (P0A7G6 2-353): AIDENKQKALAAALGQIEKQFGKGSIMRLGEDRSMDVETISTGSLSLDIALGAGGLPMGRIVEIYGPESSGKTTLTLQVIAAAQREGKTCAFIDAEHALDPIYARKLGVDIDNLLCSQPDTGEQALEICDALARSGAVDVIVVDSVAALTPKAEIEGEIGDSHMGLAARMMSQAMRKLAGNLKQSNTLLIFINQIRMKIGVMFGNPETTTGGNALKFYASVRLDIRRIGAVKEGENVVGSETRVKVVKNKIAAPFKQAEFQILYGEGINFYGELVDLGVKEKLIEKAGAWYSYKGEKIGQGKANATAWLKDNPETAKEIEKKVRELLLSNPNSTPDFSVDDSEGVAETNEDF

Compound: O=c1c(O)c(-c2ccc(O)cc2)oc2cc(O)ccc12 [3,7,4′-trihydroxyflavone]
- activity as inhibitor of RecA ATPase (in words) (E. Coli RecA protein): particularly active

Compound: O=c1cc(-c2ccc(O)cc2)oc2cc(O)c(O)c(O)c12 [6-hydroxy-apigenin]
- activity as inhibitor of RecA ATPase (in words) (E. Coli RecA protein): particularly active

Compound: O=C(O)c1cn(C2CC2)c2cc(N3CCNCC3)c(F)cc2c1=O [Cipro, ciprofloxacin]
- growth of wild type E. coli in the presence of Cipro (wild type E. coli): able to grow
- Number of Wells in which Growth Observed in Presence of Ciprofloxacin at 4x MIC (S. aureus cells; culture grown 0 days): 0
- Number of Wells in which Growth Observed in Presence of Ciprofloxacin at 4x MIC (S. aureus cells; culture grown 1 day): 1
- Number of Wells in which Growth Observed in Presence of Ciprofloxacin at 4x MIC (S. aureus cells; culture grown 5 days): 2
- Number of Wells in which Growth Observed in Presence of Ciprofloxacin at 4x MIC (S. aureus cells; culture grown 6 days): 2
- Number of Wells in which Growth Observed in Presence of Ciprofloxacin at 4x MIC (S. aureus cells; culture grown 7 days): 3
- Number of Wells in which Growth Observed in Presence of Ciprofloxacin at 4x MIC (S. aureus cells; culture grown 10 days): 11

Compound: OC(c1cc(C(F)(F)F)nc2c(C(F)(F)F)cccc12)C1CCCCN1 (centres unmarked) [Mefloquine]
- reduction of the MBC of gentamicin (strain E1; strain E1, Mefloquine 100 μg/mL): 6 fold
- reduction of the MIC of gentamicin (strain E1; strain E1, Mefloquine 500 μg/mL): 2 fold

Compound: O=c1cc(-c2ccc(O)cc2)oc2cc(O[C@@H]3O[C@H](CO)[C@@H](O)[C@H](O)[C@H]3O)cc(O)c12 [apigenin-7-O-glucoside]
- activity as inhibitor of RecA ATPase (in words) (E. Coli RecA protein): particularly active

Compound: O=c1cc(-c2ccc(O)cc2)oc2cc(O)cc(O)c12 [apigenin]
- activity as inhibitor of RecA ATPase (in words) (E. Coli RecA protein): particularly active

Compound: O=C(N[C@H](CO)[C@H](O)c1ccc([N+](=O)[O-])cc1)C(Cl)Cl [chloramphenicol]
- hydroxyl radical formation ([1]; norfloxacin, chloramphenical): hydroxyl formation was not observed
- hydroxyl radical formation (E. coli MG1655): did not stimulate hydroxyl radical production

Compound: CC[C@H]1OC(=O)[C@H](C)[C@@H](O[C@H]2C[C@@](C)(OC)[C@@H](O)[C@H](C)O2)[C@H](C)[C@@H](O[C@@H]2O[C@H](C)C[C@H](N(C)C)[C@H]2O)[C@](C)(O)C[C@@H](C)C(=O)[C@H](C)[C@@H](O)[C@]1(C)O [erythromycin]
- hydroxyl radical formation (E. coli MG1655): did not stimulate hydroxyl radical production

Compound: O=c1c(O)c(-c2ccc(O)c(O)c2)oc2cc(O)ccc12 [fisetin]
- activity as inhibitor of RecA ATPase (in words) (E. Coli RecA protein): particularly active

Compound: COc1cc(-c2oc3cc(O)cc(O)c3c(=O)c2O)ccc1O [isorhamnetin]
- activity as inhibitor of RecA ATPase (in words) (E. Coli RecA protein): particularly active

Compound: O=c1c(O)c(-c2ccc(O)cc2)oc2cc(O)cc(O)c12 [kaempferol]
- activity as inhibitor of RecA ATPase (in words) (E. Coli RecA protein): particularly active

Compound: O=C(c1ccc(O)c(O)c1)c1c(O)cc(O)cc1O [maclurin]
- activity as inhibitor of RecA ATPase (in words) (E. Coli RecA protein): particularly active

Compound: O=c1c(O)c(-c2ccc(O)cc2O)oc2cc(O)cc(O)c12 [morin]
- activity as inhibitor of RecA ATPase (in words) (E. Coli RecA protein): particularly active

Compound: CC[C@H]1/C=C/C=C/C[C@@H](C)[C@H](O)[C@@](C)(O)C(=O)[C@@H](C)[C@H](O)[C@@H](C)C(=O)[C@@H](C)[C@H](O)[C@@H](C)/C=C/C(=O)O[C@@H]2[C@H](C)[C@H](CC1)O[C@]1(CC[C@H](C)[C@H](C[C@@H](C)O)O1)[C@H]2C [oligomycin]
- inhibition of ATP-driven proton transport and ATP hydrolysis (E. coli H+ATPase): weakly inhibited

Compound: O=c1c(O)c(-c2ccc(O)c(O)c2)oc2cc(O)c(O)c(O)c12 [quercetagetin]
- activity as inhibitor of RecA ATPase (in words) (E. Coli RecA protein): particularly active

Compound: O.O.O=c1c(O)c(-c2ccc(O)c(O)c2)oc2cc(O)cc(O)c12 [quercetin dihydrate]
- activity as inhibitor of RecA ATPase (in words) (E. Coli RecA protein): particularly active

Compound: CO[C@H]1/C=C/O[C@@]2(C)Oc3c(C)c([O-])c4c(O)c(cc(O)c4c3C2=O)NC(=O)/C(C)=C\C=C\[C@H](C)[C@H](O)[C@@H](C)[C@@H](O)[C@@H](C)[C@H](OC(C)=O)[C@@H]1C.[Na+] [rifamycin SV]
- hydroxyl radical formation (E. coli MG1655): did not stimulate hydroxyl radical production

Compound: O=c1c(O)cc([C@H]2Oc3cc(O)cc(O)c3C[C@H]2O)cc2c([C@H]3Oc4cc(O)cc(O)c4C[C@H]3O)cc(O)c(O)c12 [theaflavin]
- activity as inhibitor of RecA ATPase (in words) (E. Coli RecA protein): particularly active

Compound: CN[C@H](CC(C)C)C(=O)N[C@H]1C(=O)N[C@@H](CC(N)=O)C(=O)N[C@H]2C(=O)N[C@H]3C(=O)N[C@H](C(=O)N[C@H](C(=O)O)c4cc(O)cc(O)c4-c4cc3ccc4O)[C@H](O)c3ccc(c(Cl)c3)Oc3cc2cc(c3O[C@@H]2O[C@H](CO)[C@@H](O)[C@H](O)[C@H]2O[C@H]2C[C@](C)(N)[C@H](O)[C@H](C)O2)Oc2ccc(cc2Cl)[C@H]1O [vancomycin]
- hydroxyl radical formation ([1]; lethal concentration (5 μg/mL)): increase in hydroxyl radical production
- hydroxyl radical formation ([1]; sub-lethal concentration (1 μg/mL)): hydroxyl formation was not observed

Compound: venturicidin
- inhibition of ATP-driven proton transport and ATP hydrolysis (E. coli H+ATPase): strongly inhibited
